Measured values published in US8524193B2, “Non-invasive diagnostic imaging technology for mitochondria using radiolabeled lipophilic salts” (The Johns Hopkins University, priority 2002, dated 2013).
Several values for one entry are separate records, joined by “and”; a condition that tells them apart may be missing. Equal values may be shown once. Read-outs that look alike come from different tables or passages of the source. Blank lines part the entries; values can stand above or below the compound they belong to.

Columns and labels:
[1] = C-11-TPMP uptake kinetics in the myocardium (PET); format: in vivo; settings: dog, five-fold increase (by adenosine) in flow
Experimental: We have examined the performance of C-11-triphenyl phosphonium cation (TPMP) for assessing regional myocardial flow in dog using PET (Kraus, 1994).
Methods: Four mCi of C-11-TPMP were introduced i.v., and dynamic images of increasing duration (15 sec to 20 min) were acquired over a total time of 85 min. Images were acquired on the GE 4096+ PET scanner (15 slices, 6.5 mm slice thickness). Images were reconstructed using backprojection, and corrected for attenuation. A detailed description of methods appears in Kraus, 1994. These images show excellent visualization of the myocardium with a high contrast to the surrounding lung tissue. During the plateau time period heart/lung ratio was >14:1, and heart/blood >100:1. Under baseline conditions (flow=69 ml/min/100 g), the extraction fraction is very high (91%). […] To investigate the relationship between myocardial blood flow and C-11-TPMP uptake in the heart, the LAD was occluded and the C-11-TPMP accumulation in tissue samples compared to microsphere determined regional myocardial blood flow. A significant correlation (r=0.93, p<0.01) was found at 5 min after LAD occlusion (FIG. 12). The non-infracted/infracted myocardium ratio was 12.1±2.4. […] Thallium 201 extraction under baseline flow is about 80%, decreasing to about 60% for five-fold increases in flow rate. […]

[2] = Stability of F-18-FBnTP in plasma after injection into mice (column switch HPLC); format: in vivo
Experimental: Radiochemical purity of F-18-FBnTP and its stability in vivo was measured by chromatography.
Samples of mouse plasma were obtained from heparinized whole bloodcollected 5, 15 and 30 min p.i. of the tracer. To eliminate binding to plasma proteins, the plasma was added to solid urea to give a final concentration of 8M urea. The plasma-urea was loaded into a column switch HPLC system (Hilton 2000), in which the plasma passes through a small capture column (Oasis Sorbent, Waters Corp.), which retains lipophilic solutes, while polar species fail to bind and are detected as they pass through a positron detector. After four minutes, the capture column is free of plasma proteins and polar species. Then, the contents of the capture column was swept onto an analytical column (Prodigy ODS-3, Phenomenex) by 40% acetonitrile, 60% triethylamine acetate buffer pH 4.1 at 1 mL/min, where separation of the parent compound and lipophilic metabolites occurs. The effluent from the analytical column also passes through the positron flow detector. The proportion of each species is determined from the area under each chromatographic peak. Results: Radiochemical purity of the 18F-labeled FBnTP was more than 95%. […] FIG. 1 depicts the chromatogram of plasma collected 30 min p.i., and the parental compound incubated for a similar time period (30 min) in buffered saline. […]

FCA-induced inflammation = assay: Accumulation in FCA-induced inflammation tissue and healthy muscle; format: in vivo, rats; settings: for Inf/Control: ratio inflammation tissue to healthy muscle, 3 days after FCA; for Accumulation, Control: rats, healthy muscle, 3 days after administration of FCA
Experimental: (§1) 0.1 ml of nitrosomethyl urea (NUM) was introduced i.p in female rats (150 g). When tumor reached an approximate size of 1 to 1.5 cm, FCA was injected (0.15 ml) to the hind limb footpad. Uptake assays were carried out 3 days thereafter. F-18-FBnTP (0.25 mCi) was injected via tail vein. Sixty minutes later tumor, inflamed tissue and healthy muscle tissue of the opposite limb (control) were collected on ice, weighed and counted in a gamma counter together with standards.
The accumulation of the novel F-18-phosphonium cations, F-18-FBnTP and F-18-fluoropropyl triphenyl phosphonium (F-18-FPTP) in comparison with F18-FDG in FCA-induced inflammation and healthy tissue is presented in Table 2. Induction of inflammation and activity counting were carried out as described above. Fluorophosphonium compounds accumulate in inflammation much less than FDG (Table 2). These date provide strong evidence to our claim that F-18-phosphonium compound are suitable for differentiation of tumor from inflammation and may resolve a major drawback of F-18-FDG. Table 2: Accumulation of Fluorophosphonium Compounds (FBnTP and FPTP) FDG in inflammation tissue and healthy muscle 3 days after administration of FCA.

[3] = F-18-FBnTP uptake kinetics in the myocardium (PET); format: in vivo, Mongrel dogs; settings: dog PET
Experimental: Methods: Mongrel dogs (BW=35 kg) were injected with 3-4 mCi of F-18-FBnTP. Images were acquired on a GE 4096+ scanner (15 slices, 6.5 mm slice thickness). PET scans of increasing duration (15 sec to 20 min) were acquired over a total time of 85 min post-injection. Arterial blood samples (0.5 ml in volume) were collected every few seconds for the first 3 minutes and at gradually increasing intervals (1 to 10 min) for the remaining time of the imaging study. The vascular and myocardial kinetics of F-18-FBnTP was analyzed using the ROI method.

[4] = test system: Human lung carcinoma H549 cells; assay: Mitochondria membrane potential (MMP)-dependent cellular uptake with CCCP; format: cell-based; settings: CCCP 30, 60, 90, 120 μM, 30 min
Experimental: The extent of MMP-dependent cellular uptake of F-18-FBnTP was assessed using CCCP, a known protonophore that selectively abolishes the MMP.
Methods: Human lung carcinoma H549 cells ([…]) were incubated with 0.1 μCi/ml F-18-FBnTP for 30 min. Samples of the suspension (1 mL) were transferred to Eppendorf's vials and placed in a 370 C bath. Varying concentrations (30, 60, 90, 120 μM) of CCCP were added to the suspension. After 30 min of incubation with CCCP, the Eppendorf vials were centrifuged for 1 min, and activity in pellet and supernatant was immediately counted.

[5] = F-18-FBnTP myocardial accumulation in pacing model of heart failure (PET); format: in vivo, mongrel dog
Experimental: Pacing of the mongrel dog heart at high rate (210 bpm) for a four weeks is a well-established model of heart failure. The advantage of this model is that the cardiomyopathy solely involve apoptosis without stenosis of coronary artery or related ischemia. Therefore, in this model the affect of apoptosis on FBnTP uptake can be dissected.
Methods: Preparation of dog and data acquisition was performed as described above. Mongrel dog was installed with a pacemaker in the rib case and underwent FBnTP PET scan (presented above). Following the baseline scan, the dog_s heart was paced at a rate of 210 bpm for 4 weeks and a second scan was acquired.
FIG. 18 depicts co-registered images before and after pacing. […] Quantitation of FBnTP in the myocardium was performed using region of interest placed on co-registered myocardial images, whose activity was normalized to the injected dose, before and after pacing. An example for ROI placement is illustrated in FIG. 18.

[6] = Stability of fluorination: total bone uptake; format: in vivo; settings: mice, 5 and 30 min p.i., compared to mice injected with F-18 only; listed as F-18-FBnTP
Experimental: Methods: Mice were injected via the tail vein with 25 μCi of F-18-PhC; 5 and 30 min p.i., the left or right femur bone was removed, and bone radioactivity together with standard (1:100 of injected dose) were counted in a gamma counter. A parallel group of mice was injected with free fluorides (F-18). Three mice of each group were studied at each time point. Radioactivity is represented as percentage of injected dosed (% ID) and total bone uptake was calculated as activity in femur bone ×20.

[7] = test system: orthotopic NMU mammary tumor; assay: Uptake in NMU mammary tumor versus healthy gland and FCA inflammation; format: in vivo; settings: NMU-bearing female rats, 60 min after injection, normalized to muscle
Excerpt: The carcinogen nitrosomethyl urea (NMU) induces carcinoma tumors solely in the mammary gland of female rats. Therefore, the orthotopic NMU mammary tumor is an excellent model for evaluating tracer tumor selectivity by contrasting radioactivity accumulating in mammary gland infested with carcinoma cells and healthy mammary gland. Freund Complete Adjuvant (FCA) is a well_studied inflammation agent in rats Induction of FCA inflammation in NMU-bearing rats allows for direct quantitation of tracer capability to differentiate carcinoma from inflammation.
as §1

[8] = cited from earlier work
[9] = five-fold increases in flow rate / high flow rates

- decrease of the extraction fraction [1]: 39%
Compound: [11CH3][P+](c1ccccc1)(c1ccccc1)c1ccccc1 [[11C]TPMP, C-11-triphenylmethyl phosphonium]

- stable after intravenous injection of the tracer in vivo ([2]; mice, plasma radiochromatograms): more than 30 min
- single radio-peak in plasma chromatography, share of total activity ([2]; mouse plasma collected 5, 15 and 30 min p.i., no other peak observed): 97%
- Inf/Control (FCA-induced inflammation): 0.42
- Accumulation, Control (FCA-induced inflammation): 0.76 ± 0.21 % ID/g tissue
- washout from the blood pool ([3]; arterial blood samples): rapid washout
- time to equilibrium of accumulation in the myocardium ([3]; persisted for the remaining scanning time (85 min)): within a few minutes
- total bone uptake [6]: minimal bone uptake
- uptake in tumor relative to healthy gland [7]: 4 times
- uptake in tumor relative to inflammation ([7]; FCA inflammation 3 days): 3 times
Compound: [18F]c1ccc(C[P+](c2ccccc2)(c2ccccc2)c2ccccc2)cc1 [[18F]FBnTP, F-18-fluorobenzyl triphenyl phosphonium]
- MMP-dependent share of cellular uptake [4]: 86%
- Ratio P/B ([5]; Slices 36-37, ROI1): 0.62
- Ratio P/B ([5]; Slices 36-37, ROI2): 0.91
- Ratio P/B ([5]; Slices 36-37, ROI3): 0.85
- Ratio P/B ([5]; Slices 46-49, ROI1): 0.56
- Ratio P/B ([5]; Slices 46-49, ROI2): 0.76
- Ratio P/B ([5]; Slices 46-49, ROI3): 0.82
- decrease in uptake in the inferior wall after pacing ([5]; dog, 210 bpm for 4 weeks, p<0.001): 40-60%

- Inf/Control (FCA-induced inflammation): 0.25
- Accumulation, Control (FCA-induced inflammation): 0.29 ± 0.06 % ID/g tissue
Compound: [18F]CCC[P+](c1ccccc1)(c1ccccc1)c1ccccc1 [[18F]FPTP, [^18F]3-fluoropropyltriphenyl-phosphonium ion]

- Inf/Control (FCA-induced inflammation): 1.20 and 2.12
Compound: OC[C@H]1OC(O)[C@H]([18F])[C@@H](O)[C@@H]1O (some centres unmarked) [[^18F]FDG, reference compound]
- Accumulation, Control (FCA-induced inflammation): 1.05 ± 0.35 % ID/g tissue and 0.68 ± 0.14 % ID/g tissue

The next lines start with the compound.

Compound: [99Tc].[C-]#[N+]CC(C)(C)OC.[C-]#[N+]CC(C)(C)OC.[C-]#[N+]CC(C)(C)OC.[C-]#[N+]CC(C)(C)OC.[C-]#[N+]CC(C)(C)OC.[C-]#[N+]CC(C)(C)OC [[^99mTc]MIBI, Tc-99m-sestamibii]
- myocardial extraction ([8]; baseline / normal flow): about 60%
- myocardial extraction [8, 9]: 40%

Compound: Thallium 201
- myocardial extraction ([8]; baseline / normal flow): about 80%
- myocardial extraction [8, 9]: about 60%
